Experimental data reported in patent US11957687B2 (REGENERON PHARMACEUTICALS, INC., priority 2019, dated 2024).

Key:
Assay type in all cases: biochemical
HSD17B13 = HSD17B13 (Homo sapiens (Human), UniProt Q7Z5P4); assay: HSD17B13 enzymatic inhibition assay (150 nM or 50 nM HSD17B13); details: 50 nM HSD17B13; read-out: Inhibition of 50 nM of HSD17B13 IC50
HSD17B1 = HSD17B1 (Homo sapiens (Human), UniProt P14061); assay: HSD17B1 enzymatic blocking assay; details: 25 μM Estradiol, 500 μM NAD; read-out: Inhibition of HSD17B1 IC50
HSD17B1, sequence (P14061 other isoform, or with tags, fused parts or gaps): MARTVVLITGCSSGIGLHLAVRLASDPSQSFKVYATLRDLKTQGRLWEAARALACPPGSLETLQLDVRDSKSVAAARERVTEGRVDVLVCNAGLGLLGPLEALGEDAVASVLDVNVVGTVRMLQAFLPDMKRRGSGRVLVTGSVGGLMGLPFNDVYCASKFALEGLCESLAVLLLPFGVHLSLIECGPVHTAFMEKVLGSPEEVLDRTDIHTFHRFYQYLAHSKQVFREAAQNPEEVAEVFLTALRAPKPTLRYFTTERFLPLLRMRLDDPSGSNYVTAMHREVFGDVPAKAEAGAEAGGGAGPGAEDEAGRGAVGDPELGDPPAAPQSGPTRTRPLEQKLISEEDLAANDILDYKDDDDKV
Experimental: To screen compounds of the disclosure for their ability to block HSD17B1 function, an enzymatic blocking assay was performed. For the assay, HSD17B1 activity was measured by detecting NADH formation from oxidation of Estradiol using a NADH Glo luminescence assay (Promega, #Cat. No. G9062). […] Compounds were incubated with the enzyme for 30 minutes at room temperature. […] DMSO at a concentration of 0.5% was used as a negative control and a ‘no substrate’ control was used a positive control in the assay. Detection reagent was then added as per manufacturer's instructions, and the plate was subsequently incubated in the dark for 1 hour at room temperature, NADH generated was detected in the luminescence mode on the Envision Perkin Elmer plate reader. The IC50 values were determined using Dotmatics analysis software.

HSD17B2 = HSD17B2 (Homo sapiens (Human), UniProt P37059); assay: HSD17B2 enzymatic blocking assay; details: 1.8 μM Estradiol, 650 μM NAD; read-out: Inhibition of HSD17B2 IC50
HSD17B2, sequence (P37059 other isoform, or with tags, fused parts or gaps): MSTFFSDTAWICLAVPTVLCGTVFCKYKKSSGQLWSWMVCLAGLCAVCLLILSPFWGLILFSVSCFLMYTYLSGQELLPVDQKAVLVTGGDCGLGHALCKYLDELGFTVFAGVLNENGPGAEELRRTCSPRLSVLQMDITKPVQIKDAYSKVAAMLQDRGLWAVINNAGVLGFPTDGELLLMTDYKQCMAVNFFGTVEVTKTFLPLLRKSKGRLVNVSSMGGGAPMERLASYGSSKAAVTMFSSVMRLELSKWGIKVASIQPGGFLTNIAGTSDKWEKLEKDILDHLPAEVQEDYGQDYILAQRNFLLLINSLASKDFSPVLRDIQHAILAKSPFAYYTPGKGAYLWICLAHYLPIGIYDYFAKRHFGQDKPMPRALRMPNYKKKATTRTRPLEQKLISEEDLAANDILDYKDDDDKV
Experimental: To screen compounds of the disclosure for their ability to block HSD17B2 function, an enzymatic blocking assay was performed. For the assay, HSD17B2 activity was measured by detecting NADH formation from oxidation of Estradiol using a NADH Glo luminescence assay (Promega, #Cat. No. G9062). Compounds of the disclosure were evaluated in a dose titration assay where the compounds were titrated at 10-point dose curve using an Echo-555 liquid handling dispenser. HSD17B2 (SEQ ID NO: 3, expressed in mammalian cells) was added at a final concentration of 2 ng/μL in a buffer containing 50 mM Tris-HCl, pH 7.5, Pluronic F-127 0.05%, Tween20 0.01%, BSA 0.01% into a low volume white 384-well assay plate. Compounds were incubated with the enzyme for 15 min at 20° C. The assay reaction was then initiated by addition of 1.8 μM Estradiol substrate (Sigma, catalog #E2758-250MG, CAS: 50-28-2) and 650 μM NAD co-factor, and the reaction mixture was incubated for 45 min at 20° C. DMSO at a concentration of 0.5% was used as a negative control and a ‘no substrate’ control was used a positive control in the assay. Detection reagent was then added as per manufacturer's instructions, and the plate was subsequently incubated in the dark for 1 hour at room temperature, NADH generated was detected in the luminescence mode on the Envision Perkin Elmer plate reader. The IC50 values were determined using Dotmatics analysis software.

HSD17B13, sequence (Q7Z5P4 other isoform, or with tags, fused parts or gaps): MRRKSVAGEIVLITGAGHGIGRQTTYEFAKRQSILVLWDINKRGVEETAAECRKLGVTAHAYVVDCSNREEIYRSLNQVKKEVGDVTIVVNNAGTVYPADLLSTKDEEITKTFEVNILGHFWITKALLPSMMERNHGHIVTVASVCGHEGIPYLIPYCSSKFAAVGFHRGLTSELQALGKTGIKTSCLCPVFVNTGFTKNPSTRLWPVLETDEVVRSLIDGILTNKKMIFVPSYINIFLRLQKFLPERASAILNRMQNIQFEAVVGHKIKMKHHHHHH

Row | Structure (SMILES) | IC50 (HSD17B13) | IC50 (HSD17B1) | IC50 (HSD17B2)
1 | CNc1cccc(C(NC(=O)c2ccc(C(F)(F)F)[nH]c2=O)c2ccc(C)cc2)c1 (stereo not drawn) [Compound 419, N-((3-(methylamino)phenyl)(p-tolyl)methyl)-2-oxo-6-(trifluoromethyl)-1,2-dihydropyridine-3-carboxamide] | 0.63 µM | > 30 µM | > 100 µM
2 | Cc1ccc(C(NC(=O)c2ccc(C(F)(F)F)[nH]c2=O)C2CCCCC2)cc1 (stereo not drawn) [Compound 421, N-(cyclohexyl(p-tolyl)methyl)-2-oxo-6-(trifluoromethyl)-1,2-dihydropyridine-3-carboxamide] | 0.36 µM | 25.1 µM | 11.3 µM
3 | Cc1ccc(C(CC2CCCCC2)NC(=O)c2ccc(C(F)(F)F)[nH]c2=O)cc1 (stereo not drawn) [Compound 422, N-(2-cyclohexyl-1-(p-tolyl)ethyl)-2-oxo-6-(trifluoromethyl)-1,2-dihydropyridine-3-carboxamide] | 0.16 µM | 10.7 µM | 17.3 µM
4 | Cc1ccc2c(c1)Oc1cc(C)ccc1C2NC(=O)c1cc(N2CCN(C)CC2)c(C(F)(F)F)[nH]c1=O [Compound 435, N-(3,6-dimethyl-9H-xanthen-9-yl)-5-(4-methylpiperazin-1-yl)-2-oxo-6-(trifluoromethyl)-1,2-dihydropyridine-3-carboxamide] | 0.11 µM | 23.5 µM | 59.4 µM
5 | Cc1ccc2c(c1)Oc1cc(C)ccc1C2NC(=O)c1cc(N2CCCCC2)c(C(F)(F)F)[nH]c1=O [Compound 436, N-(3,6-dimethyl-9H-xanthen-9-yl)-2-oxo-5-(piperidin-1-yl)-6-(trifluoromethyl)-1,2-dihydropyridine-3-carboxamide] | 0.09 µM | 6.19 µM | 27.3 µM
6 | Cc1ccc2c(c1)Oc1cc(C)ccc1C2NC(=O)c1cc(N2CCOCC2)c(C(F)(F)F)[nH]c1=O [Compound 438, N-(3,6-dimethyl-9H-xanthen-9-yl)-5-morpholino-2-oxo-6-(trifluoromethyl)-1,2-dihydropyridine-3-carboxamide] | 0.05 µM | 10.7 µM | 23.5 µM
7 | CSc1cccc(C(NC(=O)c2ccc(C(F)(F)F)[nH]c2=O)c2ccc(C)cc2)c1 (stereo not drawn) [Compound 445, N-((3-(methylthio)phenyl)(p-tolyl)methyl)-2-oxo-6-(trifluoromethyl)-1,2-dihydropyridine-3-carboxamide] | 0.23 µM | 14.8 µM | 42.9 µM
8 | Cc1ccc2c(c1)Oc1cc(C)ccc1C2NC(=O)c1cc(C2CCOCC2)c(C(F)(F)F)[nH]c1=O [Compound 461, N-(3,6-dimethyl-9H-xanthen-9-yl)-2-oxo-5-(tetrahydro-2H-pyran-4-yl)-6-(trifluoromethyl)-1,2-dihydropyridine-3-carboxamide] | 0.04 µM | 7.64 µM | 45.4 µM
9 | Cc1ccc2c(c1)Oc1cc(C)ccc1C2NC(=O)c1cc(-c2cncnc2)c(C(F)(F)F)[nH]c1=O [Compound 499, N-(3,6-dimethyl-9H-xanthen-9-yl)-2-oxo-5-(pyrimidin-5-yl)-6-(trifluoromethyl)-1,2-dihydropyridine-3-carboxamide] | 0.03 µM | 4.86 µM | 9.8 µM
10 | Cc1ccc2c(c1)Oc1cc(C)ccc1C2NC(=O)c1cc(C2=CCN(C)CC2)c(C(F)(F)F)[nH]c1=O [Compound 501, N-(3,6-dimethyl-9H-xanthen-9-yl)-1′-methyl-6-oxo-2-(trifluoromethyl)-1,1′,2′,3′,6,6′-hexahydro-[3,4′-bipyridine]-5-carboxamide] | 0.34 µM | > 30 µM | 46 µM
11 | Cc1ccc2c(c1)Oc1cc(C)ccc1C2NC(=O)c1cc(-c2ccncc2)c(C(F)(F)F)[nH]c1=O [Compound 504, N-(3,6-dimethyl-9H-xanthen-9-yl)-6-oxo-2-(trifluoromethyl)-1,6-dihydro-[3,4′-bipyridine]-5-carboxamide] | 0.06 µM | 19.7 µM | 39.4 µM
12 | C=CCc1cc(C(=O)NC2c3ccc(C)cc3Oc3cc(C)ccc32)c(=O)[nH]c1C(F)(F)F [Compound 511, 5-allyl-N-(3,6-dimethyl-9H-xanthen-9-yl)-2-oxo-6-(trifluoromethyl)-1,2-dihydropyridine-3-carboxamide] | 0.05 µM | 6.13 µM | 16.2 µM
13 | CN1c2ccccc2C(NC(=O)c2ccc(C(F)(F)F)[nH]c2=O)c2ccccc21 [Compound 519, N-(10-methyl-9,10-dihydroacridin-9-yl)-2-oxo-6-(trifluoromethyl)-1,2-dihydropyridine-3-carboxamide] | 1.35 µM | 7.22 µM | > 100 µM
14 | N#Cc1ccc2c(c1)Oc1ccccc1C2NC(=O)c1ccc(C(F)(F)F)[nH]c1=O (stereo not drawn) [Compound 528, N-(3-cyano-9H-xanthen-9-yl)-2-oxo-6-(trifluoromethyl)-1,2-dihydropyridine-3-carboxamide] | 0.09 µM | 17 µM | 23.2 µM

Continued by falling IC50 (HSD17B13), values first:

Row | IC50 (HSD17B13) | IC50 (HSD17B1) | IC50 (HSD17B2) | Structure (SMILES)
15 | 0.03 µM | 12.9 µM | 25 µM | Cc1ccc2c(c1)Oc1cc(C)ccc1C2NC(=O)c1cc(C2CCCCC2)c(C(F)(F)F)[nH]c1=O [Compound 460, 5-cyclohexyl-N-(3,6-dimethyl-9H-xanthen-9-yl)-2-oxo-6-(trifluoromethyl)-1,2-dihydropyridine-3-carboxamide]
16 | 0.03 µM | 2.04 µM | 19.7 µM | Cc1ccc2c(c1)Sc1cc(C)ccc1C2NC(=O)c1cc(-c2ccncc2)c(C(F)(F)F)[nH]c1=O [Compound 495, N-(3,6-dimethyl-9H-thioxanthen-9-yl)-6-oxo-2-(trifluoromethyl)-1,6-dihydro-[3,4′-bipyridine]-5-carboxamide]
17 | 0.02 µM | 2.67 µM | 14.8 µM | Cc1ccc2c(c1)Oc1cc(C)ccc1C2NC(=O)c1cc(Cc2ccccc2)c(C(F)(F)F)[nH]c1=O [Compound 500, 5-benzyl-N-(3,6-dimethyl-9H-xanthen-9-yl)-2-oxo-6-(trifluoromethyl)-1,2-dihydropyridine-3-carboxamide]
18 | 0.02 µM | 3.3 µM | 45.8 µM | Cc1ccc2c(c1)Oc1cc(C)ccc1C2NC(=O)c1cc(-c2cnccn2)c(C(F)(F)F)[nH]c1=O [Compound 508, N-(3,6-dimethyl-9H-xanthen-9-yl)-2-oxo-5-(pyrazin-2-yl)-6-(trifluoromethyl)-1,2-dihydropyridine-3-carboxamide]
19 | 0.02 µM | 2.19 µM | 5.53 µM | Cc1ccc2c(c1)Oc1cc(C)ccc1C2NC(=O)c1cc(-c2ccccn2)c(C(F)(F)F)[nH]c1=O [Compound 510, N-(3,6-dimethyl-9H-xanthen-9-yl)-6′-oxo-2′-(trifluoromethyl)-1′,6′ dihydro-[2,3′-bipyridine]-5′-carboxamide]
20 | 0.02 µM | 13.7 µM | 25.3 µM | Cc1ccc2c(c1)Oc1cc(C)ccc1C2NC(=O)c1cc(CCc2ccccc2)c(C(F)(F)F)[nH]c1=O [Compound 520, N-(3,6-dimethyl-9H-xanthen-9-yl)-2-oxo-5-phenethyl-6-(trifluoromethyl)-1,2-dihydropyridine-3-carboxamide]
21 | 0.02 µM | 7.42 µM | 29.2 µM | CCCc1cc(C(=O)NC2c3ccc(C)cc3Oc3cc(C)ccc32)c(=O)[nH]c1C(F)(F)F [Compound 521, N-(3,6-dimethyl-9H-xanthen-9-yl)-2-oxo-5-propyl-6-(trifluoromethyl)-1,2-dihydropyridine-3-carboxamide]
22 | 0.01 µM | 3.48 µM | 11.9 µM | Cc1ccc2c(c1)Oc1cc(C)ccc1C2NC(=O)c1cc(-c2ncccn2)c(C(F)(F)F)[nH]c1=O [Compound 509, N-(3,6-dimethyl-9H-xanthen-9-yl)-2-oxo-5-(pyrimidin-2-yl)-6-(trifluoromethyl)-1,2-dihydropyridine-3-carboxamide]
